Data on two compounds can be found in patent US6852715B1, “Indolocarbazole alkaloids from a marine actinomycete” (Instituto Biomar S.A., priority 1909, dated 2005).

Common to all, as to type: cell-based
Test [1] deals with SK-MEL-28 (monolayer culture of a human melanoma). The experiment in a line: In vitro antitumor activity, SK-MEL-28 cell growth (Crystal Violet). The settings on record: SK-MEL-28 cells, three days of incubation at 37° C., Crystal Violet staining. As to the method: (§1) The antitumor activities of IB-97224 and IB-97225 have been determined in vitro in cell cultures of mouse leukemia P-388D1, human lung carcinoma A-549, human colon carcinoma HT-29 and human melanoma SK-MEL-28. The procedure was carried out using the methodology described by Bergeron, et al. (1984), and by Schroeder, et al. (1981).
(§2) Biological activity: The antitumor cells employed have been P-388D1 (suspension culture of a lymphoid neoplasm from DBA/2 mouse), A-549 (monolayer culture of a human macrocytic lung carcinoma), HT-29 (monolayer culture of a human colon carcinoma), and SK-MEL-28 (monolayer culture of a human melanoma). P-388D1 cells were seeded into 16 mm wells at 1×10^4 cells per well in 1 ml aliquots of MEM 5FCS containing the indicated concentration of drug. A separate set of cultures without drug was seeded as control of growth to ensure that cells remained in exponential phase of growth. All determinations were carried out duplicated. After three days of incubation at 37° C. in 10% CO2 atmosphere with 98% humidity, the IC50 was calculated by comparing the growth in wells with drug with the growth in control wells without the drug. […] The IC50 was calculated by comparing the growth in wells with drug with the growth in control wells without the drug.

The subject of test [2] is P-388D1 (suspension culture of a lymphoid neoplasm from DBA/2 mouse). As to the kind of experiment: In vitro antitumor activity, P-388D1 cell growth. The settings on record: P388D1 cells, three days of incubation at 37° C., growth vs control wells without drug. As to the method: as §1, §2
The test system of test [3] is A-549 (monolayer culture of a human macrocytic lung carcinoma). As to the kind of experiment: In vitro antitumor activity, A-549 cell growth (Crystal Violet). The conditions noted are these: A-549 cells, three days of incubation at 37° C., Crystal Violet staining. As to the method:
as §1, §2

Test [4] deals with HT-29 (monolayer culture of a human colon carcinoma). As to the kind of experiment: In vitro antitumor activity, HT-29 cell growth (Crystal Violet). The conditions noted are these: HT-29 cells, three days of incubation at 37° C., Crystal Violet staining. As to the method:
as §1, §2

`CO[C@H]1[C@@H](N(C)C)[C@H](O)C2OC1(C)n1c3ccccc3c3c4c(c5c6ccccc6n2c5c31)C(=O)NC4` (some centres unmarked) [IB-97224, 4′N-methyl-5′-hydroxystaurosporine]: the IC50 (in general, the concentration that gives 50% inhibition) in test [1] is 4 nM; in test [2], 40 nM; in test [3], 2 nM; in test [4], 4 nM.

Consider `CN[C@H]1[C@H](O)[C@@H]2O[C@](C)([C@H]1OC)n1c3ccccc3c3c4c(c5c6ccccc6n2c5c31)C(=O)NC4` [IB-97225, 5′-hydroxystaurosporine], for which the IC50 came out at 2 nM in test [1], 20 nM in test [2], 2 nM in test [3] and 4 nM in test [4].
